Results published in patent US20030114445A1, “N3-substituted 6-anilinopyrimidines and methods to treat-Gram-positive bacterial and mycoplasmal infections” (priority 2001, published 2003).
In brackets after ≈: the same amount, converted by molar mass. Read-outs that look alike come from different tables or passages of the source.

Experiments:
E. fecalis = assay: Inhibition of bacterial growth on agar plates (MIC); format: cell-based; conditions: 37° C., 24 hours
Protocol: (§1) Each compound is assayed against a panel of Bacillus, Enterococcus and Staphylococcus, and a Gram-negative bacterium Escherichia coli as negative control, grown in appropriate plate media solidified with 1.3% agar-agar. Stock solutions of the compounds in dimethylsulfoxide or water, depending on solubility, are added to sterile medium at a temperature of 60° C. […] One tenth mL of diluted bacteria containing 500-1000 colony-forming units (CFU) are plated and spread, and the plates incubated at 37° C. for 24 hours. MIC (minimum inhibitory concentration) is equivalent to the lowest concentration at which growth, i.e. colony formation, is not observed.

B. subtilis = assay: as above; format: cell-based; conditions: Bacillus subtilis, 37° C., 24 hours
Protocol: as §1

E. fecium = assay: as above; format: cell-based; conditions: 37° C., 24 hours
Protocol: as §1

S.aureus (Smith) = assay: as above; format: cell-based; conditions: Staphylococcus aureus, 37° C., 24 hours
Protocol: as §1

B.subtilis pol IIIC = B.subtilis pol IIIC (Bacillus subtilis, UniProt P13267); assay: biochemical
Protocol: DNA pol activity was assayed as described in Barnes et al., Nuc. Acids Res., 6:1203-19 (1979), using activated “nicked” calf-thymus DNA as template primer, 10 pM [^3H-methyl]-dTTP as the labelled dNTP substrate, and dATP, dCTP, and dGTP at 25 μM each.
Inhibitory activity of the compounds is determined by measuring the ability of the agent to inhibit enzyme-catalyzed incorporation of [^3H]-dTMP into nicked calf thymus DNA in the absence of the competitor dGTP or dATP (“truncated assay”) (see G. E. Wright and N. C. Brown, Inhibition of Bacillus subtilis DNA Polymerase III by Arylhydrazinopyrimidines: Novel Properties of 2-Thiouracil Derivatives, Biochim. Biophys. Acta 432:37-48 (1976)). Purified pol IIIC is added to a buffered solution containing Mg^2+, DTT, glycerol, nicked calf thymus DNA, saturating concentrations of dATP, dCTP, dTTP and [^3H]-dTTP. Reaction mixtures are incubated at 30° C. for 10 minutes, quenched and filtered, and radioactivity in the acid-insoluble material measured by scintillation counting. Experiments are done in triplicate. Inhibitors are assayed by addition of several dilutions of a stock solution of inhibitor (DMSO or water, depending on solubility) before enzyme addition. […] The truncated assay, i.e. exclusion of the competitive substrate dGTP or dATP, depending upon whether the compound is a uracil derivative or an isocytosine derivative, respectively, allows for the direct determination of apparent inhibitor constants (K,) in this assay system.

[1] = truncated assay, apparent inhibitor constant, read-out: K1 B.subtilis pol IIIC

B.subtilis pol IIIC, sequence (P13267 whole entry): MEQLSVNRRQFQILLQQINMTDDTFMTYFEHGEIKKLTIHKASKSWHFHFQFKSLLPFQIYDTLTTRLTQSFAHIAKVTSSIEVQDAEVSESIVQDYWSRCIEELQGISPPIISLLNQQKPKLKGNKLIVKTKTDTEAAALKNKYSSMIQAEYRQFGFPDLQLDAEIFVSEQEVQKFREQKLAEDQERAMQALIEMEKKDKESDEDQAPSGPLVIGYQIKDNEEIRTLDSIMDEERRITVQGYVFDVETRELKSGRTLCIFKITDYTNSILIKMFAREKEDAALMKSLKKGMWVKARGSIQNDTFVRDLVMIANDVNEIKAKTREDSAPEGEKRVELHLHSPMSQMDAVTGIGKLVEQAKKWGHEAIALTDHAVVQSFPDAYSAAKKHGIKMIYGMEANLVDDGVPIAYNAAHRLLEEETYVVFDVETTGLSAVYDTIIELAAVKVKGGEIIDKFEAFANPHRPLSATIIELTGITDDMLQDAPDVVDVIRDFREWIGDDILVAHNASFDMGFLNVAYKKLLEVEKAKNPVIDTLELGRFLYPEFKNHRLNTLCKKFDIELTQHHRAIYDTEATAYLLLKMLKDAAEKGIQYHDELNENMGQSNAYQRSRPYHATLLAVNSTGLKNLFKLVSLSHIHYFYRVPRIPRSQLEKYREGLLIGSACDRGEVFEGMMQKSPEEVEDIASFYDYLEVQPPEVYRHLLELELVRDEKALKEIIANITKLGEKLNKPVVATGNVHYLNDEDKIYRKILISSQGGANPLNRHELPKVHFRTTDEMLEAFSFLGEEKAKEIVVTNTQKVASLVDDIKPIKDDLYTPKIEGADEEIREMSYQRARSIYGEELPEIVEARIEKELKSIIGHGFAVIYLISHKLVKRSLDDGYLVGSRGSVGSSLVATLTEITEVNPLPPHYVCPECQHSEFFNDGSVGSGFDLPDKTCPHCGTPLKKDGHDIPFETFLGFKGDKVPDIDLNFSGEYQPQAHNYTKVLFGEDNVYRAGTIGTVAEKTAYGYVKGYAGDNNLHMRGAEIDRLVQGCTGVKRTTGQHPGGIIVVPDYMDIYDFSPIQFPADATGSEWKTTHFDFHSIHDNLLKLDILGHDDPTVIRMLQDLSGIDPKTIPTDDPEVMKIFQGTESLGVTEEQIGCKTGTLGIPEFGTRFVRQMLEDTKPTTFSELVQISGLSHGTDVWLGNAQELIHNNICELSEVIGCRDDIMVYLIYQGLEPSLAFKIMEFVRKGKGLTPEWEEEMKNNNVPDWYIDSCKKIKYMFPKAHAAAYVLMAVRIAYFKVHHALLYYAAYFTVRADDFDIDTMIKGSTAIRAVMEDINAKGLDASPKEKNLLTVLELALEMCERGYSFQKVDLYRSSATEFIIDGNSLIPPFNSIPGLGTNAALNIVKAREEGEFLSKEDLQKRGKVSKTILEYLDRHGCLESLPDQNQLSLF

Row | SMILES | MIC (E. fecalis) [µg/mL] | MIC (B. subtilis) [µg/mL] | MIC (E. fecium) [µg/mL] | MIC (S.aureus (Smith)) [µg/mL] | Ki (B.subtilis pol IIIC) [nM] | Ki (B.subtilis pol IIIC; [1]) [nM]
1 | CCc1cc(Nc2cc(=O)n(CCN3CCOCC3)c(=O)[nH]2)ccc1C [Compound 17, 3-[2-(N-morpholino)ethyl]-6-(3-ethyl-4-methylanilino)uracil] | 5 (≈ 13.9 µM) | < 1.25 | 2.5 (≈ 6.97 µM) | 5 (≈ 13.9 µM) | 90 | 
2 | CCc1cc(Nc2cc(=O)n(CCCCN3CCN(c4ncccn4)CC3)c(=O)[nH]2)ccc1C [Compound 45, 3-{4-[4-(2-pyrimidinyl)piperazinyl]butyl}-6-(3-ethyl-4-methyylanilino)uracil] | 5 (≈ 10.8 µM) | 2.5 (≈ 5.39 µM) | 5 (≈ 10.8 µM) | 10 (≈ 21.6 µM) |  | 43
3 | CCc1cc(Nc2cc(=O)n(CCCCN3CCN(Cc4ccccc4)CC3)c(=O)[nH]2)ccc1C [Compound 41, 3-[4-(4-Benzylpiperazino)butyl]-6-(3-ethyl-4-methylanilino)uracil] | 10 (≈ 21 µM) | 5 (≈ 10.5 µM) | 5 (≈ 10.5 µM) | > 20 | 34 | 
4 | CCc1cc(Nc2cc(=O)n(CCCCN3CCN(c4nc(C)cc(C(=O)O)n4)CC3)c(=O)[nH]2)ccc1C [Compound 60, 3-{4-[4-(6-methyl-4-carboxy-2-pyrimidinyl)-1-piperazinyl]butyl}-6-(3-ethyl-4-methylanilino)uracil] | 40 (≈ 76.7 µM) | 40 (≈ 76.7 µM) | 40 (≈ 76.7 µM) | 40 (≈ 76.7 µM) | 16 | 
5 | CCc1cc(Nc2cc(=O)n(CCCCN3CCN(c4ncc(C(=O)OC)c(C(F)(F)F)n4)CC3)c(=O)[nH]2)ccc1C [Compound 62, 3-{4-[4-(4-trifluoromethyl-5-methoxycarbonyl-2-pyrimidinyl)-1-piperazinyl]butyl}-6-(3-ethyl-4-methylanilino)uracil] | 80 (≈ 136 µM) | 80 (≈ 136 µM) | 80 (≈ 136 µM) | 80 (≈ 136 µM) | 550 | 
6 | CCc1cc(Nc2cc(=O)n(CCCCNCCCCn3cc(C(=O)O)c(=O)c4cc(F)c(Cl)cc43)c(=O)[nH]2)ccc1C [Compound 74, 3-{4-[4-(3-carboxy-4-oxo-6-fluoro-7-chloroquinoline-1-yl)butylamino]butyl}-6-(3-ethyl-4-methylanilino)uracil] | 20 (≈ 32.7 µM) | 20 (≈ 32.7 µM) | 20 (≈ 32.7 µM) | 20 (≈ 32.7 µM) | 63 | 
7 | CCc1cc(Nc2cc(=O)n(CCCCCNC[C@@H]3CCN(C(=O)OC(C)(C)C)C3)c(=O)[nH]2)ccc1C [Compound 79, 3(S)-{5-[(N-tert-butoxycarbonylpyrrolidin-3-yl)methylamino]pentyl}-6-(3-ethyl-4-methylanilino)uracil] | 40 (≈ 77.9 µM) | 20 (≈ 38.9 µM) | 40 (≈ 77.9 µM) | 20 (≈ 38.9 µM) | 120 | 
8 | CCc1cc(Nc2cc(=O)n(CCCCN3CC=C(c4ccc(F)c(C)c4)CC3)c(=O)[nH]2)ccc1C [Compound 82] | 20 (≈ 40.8 µM) | 10 (≈ 20.4 µM) | 20 (≈ 40.8 µM) | 20 (≈ 40.8 µM) | 29 | 
9 | CCc1cc(Nc2cc(=O)n(CCCCNS(=O)(=O)c3cccs3)c(=O)[nH]2)ccc1C [Compound 48, 3-[4-(2-thienylsulfonylamino)butyl]-6-(3-ethyl-4-methylanilino)uracil] | 5 (≈ 10.8 µM) | 2.5 (≈ 5.4 µM) | 2.5 (≈ 5.4 µM) | 5 (≈ 10.8 µM) | 75 | 
10 | CCOC(=O)CCCn1c(=O)cc(Nc2ccc(C)c(CC)c2)[nH]c1=O [Compound 10, 3-[3-(Ethoxycarbonyl)propyl]-6-(3-ethyl-4-methylanilino)uracil] | 5 (≈ 13.9 µM) | < 1.25 | 2.5 (≈ 6.96 µM) | 2.5 (≈ 6.96 µM) | 100 | 
11 | CCc1cc(Nc2cc(=O)n(CCCCCn3cnc4c(=O)n(C)c(=O)n(C)c43)c(=O)[nH]2)ccc1C [Compound 67, 3-{5-[9-(1,3-dimethyl-2,6-dioxopurinyl)]pentyl}-6-(3-ethyl-4-methylanilino)uracil] | 20 (≈ 40.5 µM) | 2.5 (≈ 5.07 µM) | 10 (≈ 20.3 µM) | 10 (≈ 20.3 µM) | 60 | 
12 | CCc1cc(Nc2cc(=O)n(CCCCN3CCN(C(=O)c4ccco4)CC3)c(=O)[nH]2)ccc1C [Compound 40, 3-{4-[4-(2-Furoyl)piperazino]butyl}-6-(3-ethyl-4-methylanilino)uracil] | 5 (≈ 10.4 µM) | 5 (≈ 10.4 µM) | 10 (≈ 20.9 µM) | 5 (≈ 10.4 µM) |  | 43
13 | CCc1cc(Nc2cc(=O)n(CCCC#N)c(=O)[nH]2)ccc1C [Compound 19, 3-(3-Cyanopropyl)-6-(3-ethyl-4-methylanilino)uracil] | 5 (≈ 16 µM) | 2.5 (≈ 8 µM) | 5 (≈ 16 µM) | 2.5 (≈ 8 µM) | 140 | 
14 | CCCCC1(O)CCN(CCCCCn2c(=O)cc(Nc3ccc(C)c(CC)c3)[nH]c2=O)CC1 [Compound 71, 3-{5-[1-(4-hydroxy-4-butylpiperidinyl)]pentyl}-6-(3-ethyl-4-methylanilino)uracil] | 10 (≈ 21.2 µM) | 5 (≈ 10.6 µM) | 10 (≈ 21.2 µM) | 10 (≈ 21.2 µM) | 2100 | 
15 | CCc1cc(Nc2cc(=O)n(CCCCN3CCN(c4nc(C)cc(C(=O)OC)n4)CC3)c(=O)[nH]2)ccc1C [Compound 61, 3-{4-[4-(6-methyl-4-methoxycarbonyl-2-pyrimidinyl)-1-piperazinyl]butyl}-6-(3-ethyl-4-methylanilino)uracil] | 20 (≈ 37.3 µM) | 10 (≈ 18.7 µM) | 20 (≈ 37.3 µM) | 40 (≈ 74.7 µM) | 66 | 
16 | CCc1cc(Nc2cc(=O)n(CCCCCN3CC=C(c4cccc5ccsc45)CC3)c(=O)[nH]2)ccc1C [Compound 73, 3-{5-[1-(4-(benzo[b]thiophen-7-yl)-1,2,3,6-tetrahydropyridinyl)]pentyl}-6-(3-ethyl-4-methylanilino)uracil] | > 80 | 10 (≈ 18.9 µM) | > 80 | 10 (≈ 18.9 µM) | 80 | 
17 | CCc1cc(Nc2cc(=O)n(CCOCCOCc3ccccc3)c(=O)[nH]2)ccc1C [Compound 5, 3-[2-(2-Benzyloxyethoxy)ethyl]-6-(3-ethyl-4-methylanilino)uracil] | 5 (≈ 11.8 µM) | < 1.25 | 10 (≈ 23.6 µM) | 5 (≈ 11.8 µM) | 56 | 
18 | CCc1cc(Nc2cc(=O)n(CCCCCNC(=O)c3cccs3)c(=O)[nH]2)ccc1C [Compound 70, 3-[5-(2-thiophenecarboxamido)pentyl]-6-(3-ethyl-4-methylanilino)uracil] | 5 (≈ 11.3 µM) | 1.25 (≈ 2.84 µM) | 5 (≈ 11.3 µM) | 10 (≈ 22.7 µM) | 65 | 
19 | CCc1cc(Nc2cc(=O)n(CCCCN3CCN(c4ncc(C(=O)O)c(C(F)(F)F)n4)CC3)c(=O)[nH]2)ccc1C [Compound 65, 3-{4-[4-(4-trifluoromethyl-5-carboxy-2-pyrimidinyl)-1-piperazinyl]butyl}-6-(3-ethyl-4-methylanilino)uracil] | 80 (≈ 139 µM) | 80 (≈ 139 µM) | 40 (≈ 69.5 µM) | 80 (≈ 139 µM) | 113 | 
20 | CCc1cc(Nc2cc(=O)n(CCCCCN3CC=C(c4cccs4)CC3)c(=O)[nH]2)ccc1C [Compound 72, 3-{5-[1-(4-(thiophen-2-yl)-1,2,3,6-tetrahydropyridinyl)]pentyl}-6-(3-ethyl-4-methylanilino)uracil] | 20 (≈ 41.8 µM) | 5 (≈ 10.4 µM) | 40 (≈ 83.6 µM) | 20 (≈ 41.8 µM) | 77 | 
21 | CCc1cc(Nc2cc(=O)n(CCN3CCN(C(=O)c4ccccc4)CC3)c(=O)[nH]2)ccc1C [Compound 39, 3-[2-(4-Benzoylpiperazino)ethyl]-6-(3-ethyl-4-methylanilino)uracil] | 10 (≈ 21.7 µM) | 2.5 (≈ 5.42 µM) | 5 (≈ 10.8 µM) | 10 (≈ 21.7 µM) | 77 | 
22 | CCc1cc(Nc2cc(=O)n(CC(C)=O)c(=O)[nH]2)ccc1C [Compound 15, 3-(2-Oxopropyl)-6-(3-ethyl-4-methylanilino)uracil] | 20 (≈ 66.4 µM) | 2.5 (≈ 8.3 µM) | 10 (≈ 33.2 µM) | 10 (≈ 33.2 µM) | 303 | 
23 | CCc1cc(Nc2cc(=O)n(CCCCN3CCSCC3)c(=O)[nH]2)ccc1C [Compound 36, 3-[(N-Thiomorpholino)butyl]-6-(3-ethyl-4-methylanilino)uracil] | 5 (≈ 12.4 µM) | 5 (≈ 12.4 µM) | 5 (≈ 12.4 µM) | 10 (≈ 24.8 µM) |  | 68
24 | CCc1cc(Nc2cc(=O)n(CCCCN3CCN(c4ccc(F)cc4)CC3)c(=O)[nH]2)ccc1C [Compound 46, 3-{4-[(4-fluorophenyl)piperazinyl]butyl}-6-(3-ethyl-4-methyylanilino)uracil] | 10 (≈ 20.9 µM) | 5 (≈ 10.4 µM) | 5 (≈ 10.4 µM) | 20 (≈ 41.7 µM) |  | 70
